The numbers were not newly measured in US12697342B2, “Non-surgical prevention of boar taint and aggressive behavior” (priority 2022, dated 2026), which cites them from elsewhere.

This series relates to Sertoli cells. Conditions: young male pigs.

The structures appear in SMILES notation.

Consider `C[C@]12CC[C@@H]3c4ccc(O)cc4C[C@@H](CCCCCCCCC[S+]([O-])CCCC(F)(F)C(F)(F)F)[C@H]3[C@@H]1CC[C@@H]2O` (some centres unmarked) [ICI 182,780], for which the “duration of Sertoli cell proliferation and testis size” value is “highly significant increase”.
Regarding `N#Cc1ccc(C(c2ccc(C#N)cc2)n2cncn2)cc1` [Letrozole], the “duration of Sertoli cell proliferation and testis size” value is “highly significant increase”.
